Measurements: PubChem BioAssay AID248 (DTP/NCI, 2004)
“And” between values parts separate entries of the source, which are not always exact repeats. Identical values can stand only once. Inconclusive results and toxic doses are left out. Cut-off read from the data, not from the text of the source: active = T/C of 150% or more; inactive = T/C below 125%.

System: L1210 leukemia ip in BDF1 mice, survival T/C
Experiment: NCI In Vivo Anticancer Drug Screen. Data for tumor model L1210 Leukemia (intraperitoneal) in B6D2F1 (BDF1) mice
Details: endpoint: mean survival time, higher = longer survival
Protocol: The antitumor activity of compounds was measured in mice bearing transplantable tumors. Survival or tumor size were measured and the results are expressed as the measurement made in the treated group (T) divided by the measurement made in the vehicle treated control group (C). The tumor model used in this assay is L1210 Leukemia (intraperitoneal) in B6D2F1 (BDF1) mice

[1] = dose: 100.0 mg/kg/injection, schedule: Q01DX009 (ip), vehicle: Klucel (hydroxypropylcellulose) (HPC)
[2] = dose: 200.0 mg/kg/injection, schedule: Q01DX009 (ip), vehicle: Klucel (hydroxypropylcellulose) (HPC)
[3] = dose: 400.0 mg/kg/injection, schedule: Q01DX009 (ip), vehicle: Klucel (hydroxypropylcellulose) (HPC)
[4] = dose: 100.0 mg/kg/injection, schedule: Q04DX002 (ip), vehicle: Klucel (hydroxypropylcellulose) (HPC)
[5] = dose: 100.0 mg/kg/injection, schedule: Q01DX001 (ip), vehicle: saline
[6] = dose: 200.0 mg/kg/injection, schedule: Q04DX002 (ip), vehicle: Klucel (hydroxypropylcellulose) (HPC)
[7] = dose: 400.0 mg/kg/injection, schedule: Q04DX002 (ip), vehicle: Klucel (hydroxypropylcellulose) (HPC)
[8] = dose: 100.0 mg/kg/injection, schedule: Q01DX001 (ip), vehicle: Klucel (hydroxypropylcellulose) (HPC)
[9] = dose: 200.0 mg/kg/injection, schedule: Q01DX001 (ip), vehicle: Klucel (hydroxypropylcellulose) (HPC)
[10] = dose: 400.0 mg/kg/injection, schedule: Q01DX001 (ip), vehicle: Klucel (hydroxypropylcellulose) (HPC)
[11] = dose: 100.0 mg/kg/injection, schedule: Q01DX009 (ip), vehicle: saline
[12] = dose: 200.0 mg/kg/injection, schedule: Q01DX009 (ip), vehicle: saline
[13] = dose: 400.0 mg/kg/injection, schedule: Q01DX009 (ip), vehicle: saline
[14] = dose: 200.0 mg/kg/injection, schedule: Q01DX001 (ip), vehicle: saline
[15] = dose: 400.0 mg/kg/injection, schedule: Q01DX001 (ip), vehicle: saline

Measured: T/C

O=C(Nc1cccc(F)c1)Nc1cccc([N+](=O)[O-])c1
inactive: [1] 102 % of control | [2] 102 % of control | [3] 97 % of control

O=S(=O)(F)c1cc(Cl)c(S)cc1Cl
inactive: dose: 25.0 mg/kg/injection, schedule: Q04DX003 (ip), vehicle: Klucel (hydroxypropylcellulose) (HPC) 96 % of control | dose: 50.0 mg/kg/injection, schedule: Q04DX003 (ip), vehicle: Klucel (hydroxypropylcellulose) (HPC) 96 % of control | dose: 100.0 mg/kg/injection, schedule: Q04DX003 (ip), vehicle: Klucel (hydroxypropylcellulose) (HPC) 98 % of control and 106 % of control

NNC(=O)CSSCC(=O)NN
inactive: [4] 101 % of control

CC(C)C1=CC23CCC4C(C)(C(=O)O)CCCC4(C)C2CC1C1(Cl)C(Cl)=C(Cl)C(Cl)(Cl)C31Cl (stereo not given)
inactive: dose: 75.0 mg/kg/injection, schedule: Q01DX001 (ip), vehicle: other 89 % of control | dose: 150.0 mg/kg/injection, schedule: Q01DX001 (ip), vehicle: other 89 % of control

CC(=O)Nc1ccc(/C=N/Nc2c3ccccc3nc3ccccc23)cc1
inactive: [5] 108 % of control

O=C(Nc1ccc(F)cc1)Nc1ccc(CCO)cc1
inactive: dose: 100.0 mg/kg/injection, schedule: Q01DX001 (ip), vehicle: carboxymethylcellulose (CMC) 99 % of control | dose: 100.0 mg/kg/injection, schedule: Q01DX009 (ip), vehicle: carboxymethylcellulose (CMC) 101 % of control and 104 % of control | dose: 100.0 mg/kg/injection, schedule: Q04DX002 (ip), vehicle: carboxymethylcellulose (CMC) 92 % of control and 87 % of control and 91 % of control | dose: 100.0 mg/kg/injection, schedule: Q04DX003 (ip), vehicle: carboxymethylcellulose (CMC) 95 % of control | dose: 200.0 mg/kg/injection, schedule: Q01DX001 (ip), vehicle: carboxymethylcellulose (CMC) 92 % of control | dose: 200.0 mg/kg/injection, schedule: Q01DX009 (ip), vehicle: carboxymethylcellulose (CMC) 92 % of control and 98 % of control | dose: 200.0 mg/kg/injection, schedule: Q04DX002 (ip), vehicle: carboxymethylcellulose (CMC) 87 % of control and 88 % of control and 90 % of control | dose: 200.0 mg/kg/injection, schedule: Q04DX003 (ip), vehicle: carboxymethylcellulose (CMC) 101 % of control | dose: 400.0 mg/kg/injection, schedule: Q01DX009 (ip), vehicle: carboxymethylcellulose (CMC) 92 % of control | dose: 400.0 mg/kg/injection, schedule: Q04DX002 (ip), vehicle: carboxymethylcellulose (CMC) 93 % of control and 87 % of control and 88 % of control | dose: 400.0 mg/kg/injection, schedule: Q04DX003 (ip), vehicle: carboxymethylcellulose (CMC) 91 % of control

Cc1ncn[nH]1
inactive: dose: 100.0 mg/kg/injection, schedule: Q04DX002 (ip), vehicle: saline 96 % of control | dose: 200.0 mg/kg/injection, schedule: Q04DX002 (ip), vehicle: saline 100 % of control | dose: 400.0 mg/kg/injection, schedule: Q04DX002 (ip), vehicle: saline 89 % of control

COC1OC(CBr)C(OC(=O)c2ccccc2)C(OC(=O)c2ccccc2)C1OC(=O)c1ccccc1 (stereo not given)
inactive: [4] 101 % of control | [6] 96 % of control | [7] 90 % of control

O=C(COc1ccc(Cl)cc1C(=O)O)NCc1cccc(NC(=O)Nc2ccc(S(=O)(=O)F)cc2)c1
inactive: [8] 96 % of control | [9] 104 % of control | [10] 105 % of control

CC1(C)CC(OP(=O)(CCl)OC2CC(C)(C)N(O)C(C)(C)C2)CC(C)(C)N1O
inactive: dose: 100.0 mg/kg/injection, schedule: Q04DX002 (ip), vehicle: water 97 % of control | dose: 200.0 mg/kg/injection, schedule: Q04DX002 (ip), vehicle: water 97 % of control

CN(C)/C=C1/C=Cc2ccccc21
inactive: [11] 98 % of control | [12] 101 % of control | [13] 97 % of control

COc1ccc(OC)c2c1CCCC21OCCO1
inactive: dose: 50.0 mg/kg/injection, schedule: Q01DX009 (ip), vehicle: saline with Tween-80 105 % of control | dose: 100.0 mg/kg/injection, schedule: Q01DX001 (ip), vehicle: saline with Tween-80 95 % of control | dose: 100.0 mg/kg/injection, schedule: Q01DX009 (ip), vehicle: saline with Tween-80 102 % of control | dose: 200.0 mg/kg/injection, schedule: Q01DX001 (ip), vehicle: saline with Tween-80 96 % of control | dose: 200.0 mg/kg/injection, schedule: Q01DX009 (ip), vehicle: saline with Tween-80 100 % of control

Cc1cnccc1N=Nc1ccc(N(C)C)cc1
inactive: dose: 100.0 mg/kg/injection, schedule: Q04DX003 (ip), vehicle: saline with Tween-80 104 % of control | dose: 200.0 mg/kg/injection, schedule: Q04DX003 (ip), vehicle: saline with Tween-80 104 % of control | dose: 400.0 mg/kg/injection, schedule: Q04DX003 (ip), vehicle: saline with Tween-80 101 % of control

CCOC(=O)/C(=C/c1cccc2ccccc12)P(=O)(OCC)OCC
inactive: dose: 50.0 mg/kg/injection, schedule: Q01DX001 (ip), vehicle: saline 97 % of control | [5] 97 % of control | [14] 103 % of control | [15] 101 % of control

CC(C)C(Cl)C(=O)O (stereo not given)
inactive: dose: 75.0 mg/kg/injection, schedule: Q01DX001 (ip), vehicle: saline 96 % of control | dose: 150.0 mg/kg/injection, schedule: Q01DX001 (ip), vehicle: saline 104 % of control

O=C(NCCCCCCCCCCNC(=O)Nc1ccc(C2=NCCCN2)cc1)Nc1ccc(C2=NCCCN2)cc1
inactive: dose: 3.12 mg/kg/injection, schedule: Q01DX Z (ip), vehicle: carboxymethylcellulose (CMC) 108 % of control | dose: 6.25 mg/kg/injection, schedule: Q01DX Z (ip), vehicle: carboxymethylcellulose (CMC) 111 % of control | dose: 9.5 mg/kg/injection, schedule: Q01DX001 (ip), vehicle: other 101 % of control | dose: 19.0 mg/kg/injection, schedule: Q01DX001 (ip), vehicle: other 110 % of control | dose: 25.0 mg/kg/injection, schedule: Q01DX Z (ip), vehicle: carboxymethylcellulose (CMC) 122 % of control | dose: 38.0 mg/kg/injection, schedule: Q01DX001 (ip), vehicle: other 101 % of control

Nc1ccc(C(=O)O)cc1[N+](=O)[O-]
inactive: [4] 95 % of control | [6] 100 % of control | [7] 95 % of control

Cc1ccc(C(=O)CCCC(=O)c2ccc(C)cc2)cc1
inactive: dose: 50.0 mg/kg/injection, schedule: Q01DX001 (ip), vehicle: other 103 % of control | dose: 100.0 mg/kg/injection, schedule: Q01DX001 (ip), vehicle: other 91 % of control | dose: 200.0 mg/kg/injection, schedule: Q01DX001 (ip), vehicle: other 97 % of control | dose: 400.0 mg/kg/injection, schedule: Q01DX001 (ip), vehicle: other 95 % of control

O=[N+]([O-])c1ccc(N2N=NC3CC/C(=C\c4cccc([N+](=O)[O-])c4)C32N2CCOCC2)cc1 (stereo not given)
inactive: dose: 25.0 mg/kg/injection, schedule: Q04DX002 (ip), vehicle: Klucel (hydroxypropylcellulose) (HPC) 104 % of control | dose: 50.0 mg/kg/injection, schedule: Q04DX002 (ip), vehicle: Klucel (hydroxypropylcellulose) (HPC) 101 % of control | [4] 88 % of control

COC(=O)CCC(NC(=O)C1CCN(C(=O)OCc2ccccc2)CC1)C(=O)OC (stereo not given)
inactive: [5] 99 % of control | [11] 103 % of control | dose: 100.0 mg/kg/injection, schedule: Q04DX003 (ip), vehicle: acetone 95 % of control | [14] 100 % of control | [12] 102 % of control | dose: 200.0 mg/kg/injection, schedule: Q04DX003 (ip), vehicle: acetone 98 % of control | [15] 94 % of control | [13] 103 % of control | dose: 400.0 mg/kg/injection, schedule: Q04DX003 (ip), vehicle: acetone 98 % of control

CN(C)c1ccc(/C=C/c2ccc3ccccc3n2)cc1
inactive: [8] 100 % of control | [1] 103 % of control | [9] 97 % of control | [2] 100 % of control | [10] 101 % of control | [3] 95 % of control
